Measurements taken from publication PMC6946680, “Modulation of brain cation-Cl^− cotransport via the SPAK kinase inhibitor ZT-1a” (Nature Communications, 2020).
Values joined by “and” are separate entries in the source; they are usually repeats but may differ in a detail not shown here. Identical values can stand only once.

Legend:
[1] = Immunoblot of KCC site 1 phosphorylation (KCC3 Thr991) in HEK-293 cells transfected with FLAG-KCC3; assay type: cell-based, human
[2] = biological target: human SPAK 452-547(C-term) with WNK peptide (RFQV) (Homo sapiens, UniProt Q9UEW8); test: Fluorescence polarization of SPAK–WNK peptide interaction; assay type: binding; conditions: SPAK FL, Fig S5b
[3] = test system: NCC pThr46/50/55/60; test: Pharmacodynamic study, NCC phosphorylation in kidney of naive mice; assay type: in vivo, mouse; conditions: Fig S8b (kidney); 50 mg/kg
Experimental: (§1) To define ZT-1a efficacy in naive mice in vivo, we examined phosphorylation of SPAK, NKCC1, and NCC in kidney, and phosphorylation of SPAK, NKCC1, and KCC3 in brain, after intraperitoneal (i.p.) administration of either ZT-1a (10, 30, 50, and 100 mg/kg) or Closantel (50 mg/kg as a reference). […]
(§2) 5. Pharmacodynamic (PD) study
(§3) Male C57BL/6j wild-type mice (6 weeks old, Charles River Laboratories Edinburgh UK) were treated with ZT-1a (in DMSO, Sigma) by subcutaneous injection at doses of 0, 3, 10, 30, 50 and 100 mg/kg. 50 mg/kg Closantel was administered as a comparative control. Vehicle control mice were treated with an equal volume of DMSO solution. One hour after administration, mice were sacrificed by cervical dislocation, and kidney and brain tissues were rapidly dissected and snap-frozen in liquid nitrogen. Age- […]
(§4) free conditions at the University of Dundee (UK) as described in our recent study1. Animal experiments and breeding were approved by the University of Dundee ethical committee and performed under a […]
(§5) Policy on the Care, Welfare and Treatment of Animals, and regulations set by the University of Dundee and the U.K. Home Office. […]
(§6) Brain and kidney tissues were collected at 60 min post injection, and proteins subjected to immunoblot were probed with antibodies specific for phosphorylated forms of SPAK,

[4] = test system: NKCC1 pThr203/207/212; test: Pharmacodynamic study, NKCC1 phosphorylation in kidney of naive mice; assay type: in vivo, mouse; conditions: Fig S8b (kidney); 50 mg/kg
Experimental: as §1, §2, §3, §4, §5, §6

[5] = test system: SPAK phosphorylation; test: Pharmacodynamic study, SPAK phosphorylation in kidney of naive mice; assay type: in vivo, mouse; conditions: Fig S8b (kidney); 50 mg/kg
Experimental: as §1, §2, §3, §4, §5, §6

[6] = test system: KCC3 pThr1048; test: Pharmacodynamic study, KCC3 phosphorylation in brain of naive mice; assay type: in vivo, mouse
Experimental: as §1, §2, §3, §4, §5, §6

[7] = test system: NKCC1 pThr203/207/212; test: Pharmacodynamic study, NKCC1 phosphorylation in brain of naive mice; assay type: in vivo, mouse
Experimental: as §1, §2, §3, §4, §5, §6

[8] = test system: mouse model of ischemic stroke (tMCAO); test: Infarct volume and hemispheric swelling (TTC) 24 h after tMCAO; assay type: in vivo; conditions: for Infarct volume (mm3): Fig 9b; for Infarct volume (mm3) / Hemisphere swelling (%): individual mice; for Hemisphere swelling (%): Fig 9c
[9] = test system: C57BL/6J mice; test: Kaplan-Meier survival of naive and ischemic stroke mice at 25 mg/kg; assay type: in vivo, mouse; conditions: for Days elapsed: Fig S12, single mice
Experimental: We compared the neuroprotective efficacy of Closantel with that of the pan-WNK-kinase inhibitor WNK463. […] Moreover, toxicity of Closantel and ZT-1a at 25 mg/kg in naive and ischemic stroke mice was reflected in Kaplan–Meier survival curves (Supplementary Fig. 12).
Supplemental Fig. 12 Kaplan-Meier survival curve of naïve and ischemic stroke mice treated with […]
Normal naïve C57BL/6J mice, or mice after tMCAO randomly received Closantel or ZT-1a treatment […]
was monitored for 0-7 days post-treatment. No mortality was detected in the naïve mice treated with Closantel or ZT-1a. However, all ischemic stroke mice treated with Closantel died within 2 days, with a […]
median survival of 1 day. […]
days). n = 3 per group (naïve+Closantel or naive+ZT-1a), n = 6 per group (tMCAO+vehicle or tMCAO+Closantel or tMCAO+ZT-1a), *p < 0.05, Log-rank test.

[10] = test system: SPAK pSer373; test: Immunoblot of SPAK/OSR1 p-Ser373/Ser325 in HEK-293 cells; assay type: cell-based, human; conditions: single replicates
[11] = test system: NKCC1 pThr203/207/212; test: Immunoblot of NKCC1 p-Thr203/Thr207/Thr212 in HEK-293 cells; assay type: cell-based, human; conditions: single replicates

With `Cc1cc(C(C#N)c2ccc(Cl)cc2)c(Cl)cc1NC(=O)c1cc(I)cc(I)c1O` (stereo not shown) [Closantel, reference compound] the “T906/KCC2 band intensity ratio” value ([1]; Hypotonic low Cl, 1 uM, single replicates) was 0.202 and 0.217 and 0.223 and 0.249, the “T906/KCC2 band intensity ratio” value ([1]; Hypotonic low Cl, 3 uM, single replicates) was 0.23 and 0.214 and 0.223 and 0.251 and the “T906/KCC2 band intensity ratio” value ([1]; Hypotonic low Cl, 10 uM, single replicates) was 0.186 and 0.19 and 0.176 and 0.21. For the same compound, the “T906/KCC2 band intensity ratio” value ([1]; Isotonic control, 1 uM, single replicates (Fig 2 source data)) was 0.244 and 0.296 and 0.316 and 0.327, the “T906/KCC2 band intensity ratio” value ([1]; Isotonic control, 3 uM, single replicates) was 0.256 and 0.224 and 0.253 and 0.285 and the “T906/KCC2 band intensity ratio” value ([1]; Isotonic control, 10 uM, single replicates) was 0.18 and 0.181 and 0.194 and 0.22. The “Inhibitor vs SPAK FL (fluorescence polarization signal)” value (from here on “Inhibitor vs SPAK FL”) ([2]; Inhibitor 1e-5 μM) was 127.9 and 118 and 130, the “Inhibitor vs SPAK FL” value ([2]; Inhibitor 0.0001 μM) was 125.3 and 112 and 127 and the “Inhibitor vs SPAK FL” value ([2]; Inhibitor 0.001 μM) was 121.9 and 115.3 and 123. The “Inhibitor vs SPAK FL” value ([2]; Inhibitor 0.003 μM) was 123.1 and 116.4 and 120.4, the “Inhibitor vs SPAK FL” value ([2]; Inhibitor 0.01 μM) was 124.7 and 111.9 and 117.8 and the “Inhibitor vs SPAK FL” value ([2]; Inhibitor 0.03 μM) was 123.5 and 114.7 and 122.6. For the same compound, the “Inhibitor vs SPAK FL” value ([2]; Inhibitor 0.1 μM) was 126.5 and 109.5 and 116.8, the “Inhibitor vs SPAK FL” value ([2]; Inhibitor 0.3 μM) was 114.7 and 105.4 and 109.5 and the “Inhibitor vs SPAK FL” value ([2]; Inhibitor 1 μM) was 106.2 and 99.8 and 105.3. The “Inhibitor vs SPAK FL” value ([2]; Inhibitor 3 μM) was 104.5 and 98.4 and 100.5, the “Inhibitor vs SPAK FL” value ([2]; Inhibitor 10 μM) was 103.1 and 97.1 and 101.4 and the “Inhibitor vs SPAK FL” value ([2]; Inhibitor 100 μM) was 104.1 and 98.1 and 100.6. The “pTh46.50.55 / NCC” value [3] was 0.81 and 1.06 and 0.69 and 0.76, the “pTh203.207.212 / NKCC1” value [4] was 0.43 and 0.52 and 0.41 and 0.37 and the “pSer373 / SPAK” value [5] was 0.54 and 0.38 and 0.32 and 0.46. The “KCC3 phosphorylation (pThr1048) in naive brains” value ([6]; 60 min after administration) was “neither drug had reduced”, the “pTh1048 / KCC3” value ([6]; Fig S8a (brain), 50 mg/kg) was 0.84 and 0.87 and 0.95 and 0.91 and the “NKCC1 phosphorylation (pThr203/207/212) in naive brains” value ([7]; 60 min after administration) was “neither drug had reduced”. For the same compound, the “pTh203.207.212 / NKCC1” value ([7]; Fig S8a (brain), 50 mg/kg) was 0.63 and 0.62 and 0.71 and 0.68, the “infarct volume and hemispheric swelling” value ([8]; Closantel 0.1 mg/kg) was “ineffective” and the “infarct volume and hemispheric swelling” value ([8]; Closantel 1.0 or 2.5 mg/kg at 3 and 8 h post reperfusion) was “reduced infarct volume and hemispheric swelling in a dose-dependent manner”. The “Infarct volume (mm3)” value ([8]; group Closantel 0.1) was 52.64 mm3 and 37.67 mm3 and 66.15 mm3 and 91.58 mm3 and 31.83 mm3 and 54.68 mm3 and 37.74 mm3 and 60.16 mm3, the “Infarct volume (mm3)” value ([8]; group Closantel 1.0) was 45.07 mm3 and 60.3 mm3 and 40.86 mm3 and 27.89 mm3 and 44.96 mm3 and 50.26 mm3 and 35.08 mm3 and 36.9 mm3 and the “Infarct volume (mm3)” value ([8]; group Closantel 2.5) was 19.91 mm3 and 50.06 mm3 and 19.99 mm3 and 41.45 mm3 and 32.49 mm3. The “Hemisphere swelling (%)” value ([8]; group Closantel 0.1) was 17.46% and 13.77% and 21.57% and 18.71% and 11.16% and 11.73% and 9.03% and 12%, the “Hemisphere swelling (%)” value ([8]; group Closantel 1.0) was 14.03% and 8.76% and 11.37% and 10.48% and 8.67% and 13.59% and 10.61% and 15.28% and the “Hemisphere swelling (%)” value ([8]; group Closantel 2.5) was 3.84% and 16.57% and 8.91% and 6.76% and 4.41%. For the same compound, the “mortality of ischemic stroke mice” value ([9]; 25 mg/kg) was 100%, the “mortality in naive mice” value ([9]; 25 mg/kg i.p., 0-7 days, n = 3) was “No mortality” and the “time by which all ischemic stroke mice died” value ([9]; 25 mg/kg i.p., tMCAO) was no more than 2 days. For the same compound, the “median survival of ischemic stroke mice” value ([9]; 25 mg/kg i.p., tMCAO, n = 6) was 1 days, the Days elapsed ([9]; MCAO mice) was 1 days and 2 days and the Days elapsed ([9]; mice without MCAO) was 7 days. The “toxicity in mice at higher doses” value ([9]; ~25 mg/kg) was “toxicity”, the “pSPAK/SPAK band intensity ratio” value ([10]; Hypotonic low Cl, 1 uM) was 0.156 and 0.123 and 0.1673 and 0.133 and the “pSPAK/SPAK band intensity ratio” value ([10]; Hypotonic low Cl, 3 uM) was 0.102 and 0.11 and 0.1063 and 0.108. For the same compound, the “pSPAK/SPAK band intensity ratio” value ([10]; Hypotonic low Cl, 10 uM) was 0.032 and 0.058 and 0.043 and 0.041, the “pSPAK/SPAK band intensity ratio” value ([10]; Isotonic control, 1 uM) was 0.118 and 0.131 and 0.126 and 0.122 and the “pSPAK/SPAK band intensity ratio” value ([10]; Isotonic control, 3 uM) was 0.056 and 0.061 and 0.054 and 0.063. The “pSPAK/SPAK band intensity ratio” value ([10]; Isotonic control, 10 uM) was 0.039 and 0.027 and 0.033 and 0.031, the “pNKCC1/NKCC1 band intensity ratio” value ([11]; Hypotonic low Cl, 1 uM) was 1.007 and 1.145 and 1.103 and 1.12 and the “pNKCC1/NKCC1 band intensity ratio” value ([11]; Hypotonic low Cl, 3 uM) was 0.767 and 0.631 and 0.6563 and 0.721. The “pNKCC1/NKCC1 band intensity ratio” value ([11]; Hypotonic low Cl, 10 uM) was 0.313 and 0.28 and 0.243 and 0.21, the “pNKCC1/NKCC1 band intensity ratio” value ([11]; Isotonic control, 1 uM) was 0.204 and 0.171 and 0.186 and 0.195 and the “pNKCC1/NKCC1 band intensity ratio” value ([11]; Isotonic control, 3 uM) was 0.054 and 0.067 and 0.053 and 0.062. For the same compound, the “pNKCC1/NKCC1 band intensity ratio” value ([11]; Isotonic control, 10 uM) was 0.03 and 0.047 and 0.044 and 0.038.
